According to patent publication US7291622B2, “Medical uses of carbamate-substituted pyrazolo-pyridine derivatives” (Bayer Aktiengesellschaft, priority 2000, dated 2007):

Tested on: rabbit aorta rings
Test: Vasorelaxant effect in vitro (phenylephrine-contracted rabbit aorta rings)
Details: Oryctolagus cuniculus; rabbit aortic rings, phenylephrine contraction; concentration reducing height of control contraction by 50%
Method: Vasorelaxant Effect In Vitro
Rabbits are stunned by a blow to the back of the neck and are exsanguinated. The aorta is removed, freed of adherent tissue and divided into rings 1.5 mm wide, which are put singly under tension in 5 ml organ baths containing carbogen-gassed Krebs-Henseleit solution at 37° C. with the following composition (mM): NaCl: 119; KCl: 4.8; CaCl2×2H2O: 1; MgSO4×7H2O: 1.4; KH2PO4: 1.2; NaHCO3: 25; glucose: 10. The force of contraction is detected with Statham UC2 cells, amplified and digitized via A/D converters (DAS-1802 HC, Keithley Instruments Munich) and recorded in parallel on chart recorders. A contraction is generated by adding phenylephrine to the bath cumulatively in increasing concentration. After several control cycles, the substance to be investigated is investigated in each further run in increasing dosage in each case, and the height of the contraction is compared with the height of the contraction reached in the last preceding run. The concentration necessary to reduce the height of the control value by 50% (IC50) is calculated from this. The standard application volume is 5 μl, and the DMSO content in the bath solution corresponds to 0.1%.

| SMILES | IC50 [nM] |
| --- | --- |
| CCOC(=O)CN(C(=O)Oc1cnc(-c2nn(Cc3ccccc3F)c3ncccc23)nc1N)C(C)COC (centres unmarked) [Example 15] | 320 |
| C=CCN(CC=C)C(=O)Oc1cnc(-c2nn(Cc3ccccc3F)c3ncccc23)nc1N [Example 11] | 520 |
| Nc1nc(-c2nn(Cc3ccccc3F)c3ncccc23)ncc1CC(=O)N1CCOCC1 [Example 2] | 650 |
| CN(C)C(=S)Oc1cnc(-c2nn(Cc3ccccc3F)c3ncccc23)nc1N [Example 19] | 420 |
| CCN(CC)C(=O)Nc1nc(-c2nn(Cc3ccccc3F)c3ncccc23)ncc1OC(=O)N(CC)CC [Example 26, 4-{[(Diethylamino)carbonyl]amino}-2-[1-(2-fluorobenzyl)-1H-pyrazolo[3,4-b]pyridin-3-yl]-5-pyrimidinyl diethylcarbamate] | 340 |
